The source of these data is PubChem BioAssay AID1259407 (Chemical Carcinogenesis Research Information System (CCRIS), 2018).

The source made the active and inactive calls. No rule for the calls is given here.

In this data set the test system is CCRIS mutagenicity, Ames/micronucleus/aberration tests. Description: CCRIS mutagenicity studies.
Setting [1] is: Test System: AMES SALMONELLA TYPHIMURIUM, Strain/Indicator: TA100, Metabolic Activation: NONE, Method: STANDARD PLATE.
[2] abbreviates: Test System: AMES SALMONELLA TYPHIMURIUM, Strain/Indicator: TA98, Metabolic Activation: NONE, Method: PREINCUBATION
Where [3] appears, read: Test System: AMES SALMONELLA TYPHIMURIUM, Strain/Indicator: TA100, Metabolic Activation: NONE, Method: PREINCUBATION
The mark [4] stands for this setting: Test System: AMES SALMONELLA TYPHIMURIUM, Strain/Indicator: TA1535, Metabolic Activation: NONE, Method: PREINCUBATION

Regarding `CC(C)=CCC/C(C)=C/CC/C(C)=C/C(=O)OCC(=O)[C@@]1(O)CC[C@H]2[C@@H]3CCC4=CC(=O)C=C[C@]4(C)[C@H]3[C@@H](O)C[C@@]21C`, the mutagenic call runs as follows: (Test System: AMES SALMONELLA TYPHIMURIUM, Strain/Indicator: TA98, Metabolic Activation: NONE, Method: STANDARD PLATE) “inactive; negative”; (Test System: AMES SALMONELLA TYPHIMURIUM, Strain/Indicator: TA98, Metabolic Activation: RAT, LIVER, S-9, PHENOBARBITAL AND 5,6-BENZOFLAVONE, Method: STANDARD PLATE) “inactive; negative”; under setting [1], “inactive; negative”; (Test System: AMES SALMONELLA TYPHIMURIUM, Strain/Indicator: TA100, Metabolic Activation: RAT, LIVER, S-9, PHENOBARBITAL AND 5,6-BENZOFLAVONE, Method: STANDARD PLATE) “inactive; negative”; (Test System: AMES SALMONELLA TYPHIMURIUM, Strain/Indicator: TA1535, Metabolic Activation: NONE, Method: STANDARD PLATE) “inactive; negative”; (Test System: AMES SALMONELLA TYPHIMURIUM, Strain/Indicator: TA1535, Metabolic Activation: RAT, LIVER, S-9, PHENOBARBITAL AND 5,6-BENZOFLAVONE, Method: STANDARD PLATE) “inactive; negative”. For the same molecule, the mutagenic call is, setting by setting: (Test System: AMES SALMONELLA TYPHIMURIUM, Strain/Indicator: TA1537, Metabolic Activation: NONE, Method: STANDARD PLATE) “inactive; negative”; (Test System: AMES SALMONELLA TYPHIMURIUM, Strain/Indicator: TA1537, Metabolic Activation: RAT, LIVER, S-9, PHENOBARBITAL AND 5,6-BENZOFLAVONE, Method: STANDARD PLATE) “inactive; negative”; (Test System: E. COLI, Strain/Indicator: WP2 UVRA, Metabolic Activation: NONE, Method: STANDARD PLATE) “inactive; negative”; (Test System: E. COLI, Strain/Indicator: WP2 UVRA, Metabolic Activation: RAT, LIVER, S-9, PHENOBARBITAL AND 5,6-BENZOFLAVONE, Method: STANDARD PLATE) “inactive; negative”.

With `Nc1ccc2nc3ccc(N)cc3nc2c1`, the mutagenic call under setting [2] is “inactive; negative” and the mutagenic call (Test System: AMES SALMONELLA TYPHIMURIUM, Strain/Indicator: TA98, Metabolic Activation: RAT, LIVER, S-9, PCB, Method: PREINCUBATION) is “active; positive”.

`O=C1C=C(Cl)C(=O)C1(Cl)Cl`: the mutagenic call under setting [1] was “active; positive”.

As to `CCc1c(O)c2c(c(O)c1OC)C(=O)C(OC)=C(OC)C2=O`, the mutagenic call is, setting by setting: (Test System: AMES SALMONELLA TYPHIMURIUM, Strain/Indicator: TA98, Metabolic Activation: MICROSOMAL FRACTION, FULLY ACTIVATED, AND RAT LIVER S-9, Method: STANDARD PLATE) “inactive; negative”; (Test System: AMES SALMONELLA TYPHIMURIUM, Strain/Indicator: TA98, Metabolic Activation: MICROSOMAL FRACTION, NON-FULLY ACTIVATED, Method: STANDARD PLATE) “inactive; negative”; (Test System: AMES SALMONELLA TYPHIMURIUM, Strain/Indicator: TA100, Metabolic Activation: MICROSOMAL FRACTION, FULLY ACTIVATED, AND RAT LIVER S-9, Method: STANDARD PLATE) “inactive; negative”; (Test System: AMES SALMONELLA TYPHIMURIUM, Strain/Indicator: TA100, Metabolic Activation: MICROSOMAL FRACTION, NON-FULLY ACTIVATED, Method: STANDARD PLATE) “inactive; negative”; (Test System: AMES SALMONELLA TYPHIMURIUM, Strain/Indicator: TA1537, Metabolic Activation: MICROSOMAL FRACTION, FULLY ACTIVATED, AND RAT LIVER S-9, Method: STANDARD PLATE) “inactive; negative”; (Test System: AMES SALMONELLA TYPHIMURIUM, Strain/Indicator: TA1537, Metabolic Activation: MICROSOMAL FRACTION, NON-FULLY ACTIVATED, Method: STANDARD PLATE) “inactive; negative”.

Consider `CCCCCc1cc(O)c2c(c1)OC(C)(C)[C@@H]1CCC(C)=C[C@@H]21`, for which the mutagenic call runs as follows: (Test System: AMES SALMONELLA TYPHIMURIUM, Strain/Indicator: TA97, Metabolic Activation: HAMSTER, LIVER, S-9, AROCLOR 1254 (10 OR 30%), Method: PREINCUBATION) “inactive; negative”; (Test System: AMES SALMONELLA TYPHIMURIUM, Strain/Indicator: TA97, Metabolic Activation: NONE, Method: PREINCUBATION) “inactive; negative”; (Test System: AMES SALMONELLA TYPHIMURIUM, Strain/Indicator: TA97, Metabolic Activation: RAT, LIVER, S-9, AROCLOR 1254 (10 OR 30%), Method: PREINCUBATION) “inactive; negative”; (Test System: AMES SALMONELLA TYPHIMURIUM, Strain/Indicator: TA98, Metabolic Activation: HAMSTER, LIVER, S-9, AROCLOR 1254 (10 OR 30%), Method: PREINCUBATION) “inactive; negative”; under setting [2], “inactive; negative”; (Test System: AMES SALMONELLA TYPHIMURIUM, Strain/Indicator: TA98, Metabolic Activation: RAT, LIVER, S-9, AROCLOR 1254 (10 OR 30%), Method: PREINCUBATION) “inactive; negative”. Further, the mutagenic call by setting is: (Test System: AMES SALMONELLA TYPHIMURIUM, Strain/Indicator: TA100, Metabolic Activation: HAMSTER, LIVER, S-9, AROCLOR 1254 (10 OR 30%), Method: PREINCUBATION) “inactive; negative”; under setting [3], “inactive; negative”; (Test System: AMES SALMONELLA TYPHIMURIUM, Strain/Indicator: TA100, Metabolic Activation: RAT, LIVER, S-9, AROCLOR 1254 (10 OR 30%), Method: PREINCUBATION) “inactive; negative”; (Test System: AMES SALMONELLA TYPHIMURIUM, Strain/Indicator: TA1535, Metabolic Activation: HAMSTER, LIVER, S-9, AROCLOR 1254 (10 OR 30%), Method: PREINCUBATION) “inactive; negative”; under setting [4], “inactive; negative”; (Test System: AMES SALMONELLA TYPHIMURIUM, Strain/Indicator: TA1535, Metabolic Activation: RAT, LIVER, S-9, AROCLOR 1254 (10 OR 30%), Method: PREINCUBATION) “inactive; negative”.

As for `Cc1ccc(S(=O)(=O)Oc2ccc(N=Nc3ccc(-c4ccc(N=Nc5c(O)ccc6cc(S(=O)(=O)O)cc(S(=O)(=O)O)c56)c(C)c4)cc3C)cc2)cc1`, the mutagenic call is, setting by setting: (Test System: AMES SALMONELLA TYPHIMURIUM, Strain/Indicator: TA98, Metabolic Activation: HAMSTER, LIVER, S-9, AROCLOR 1254 (10%), Method: PREINCUBATION) “active; positive”; (Test System: AMES SALMONELLA TYPHIMURIUM, Strain/Indicator: TA98, Metabolic Activation: HAMSTER, LIVER, S-9, Method: PREINCUBATION (PRIVAL METHOD)) “active; positive”; under setting [2], “inactive; negative”; (Test System: AMES SALMONELLA TYPHIMURIUM, Strain/Indicator: TA98, Metabolic Activation: RAT, LIVER, S-9, AROCLOR 1254 (10%), Method: PREINCUBATION) “inactive; negative”; (Test System: AMES SALMONELLA TYPHIMURIUM, Strain/Indicator: TA100, Metabolic Activation: HAMSTER, LIVER, S-9, AROCLOR 1254 (10%), Method: PREINCUBATION) “inactive; negative”; under setting [3], “inactive; negative”. Besides, the mutagenic call was “inactive; negative” (Test System: AMES SALMONELLA TYPHIMURIUM, Strain/Indicator: TA100, Metabolic Activation: RAT, LIVER, S-9, AROCLOR 1254 (10%), Method: PREINCUBATION); “inactive; negative” (Test System: AMES SALMONELLA TYPHIMURIUM, Strain/Indicator: TA1535, Metabolic Activation: HAMSTER, LIVER, S-9, AROCLOR 1254 (10%), Method: PREINCUBATION); “inactive; negative” under setting [4]; “inactive; negative” (Test System: AMES SALMONELLA TYPHIMURIUM, Strain/Indicator: TA1535, Metabolic Activation: RAT, LIVER, S-9, AROCLOR 1254 (10%), Method: PREINCUBATION); “inactive; negative” (Test System: AMES SALMONELLA TYPHIMURIUM, Strain/Indicator: TA1537, Metabolic Activation: HAMSTER, LIVER, S-9, AROCLOR 1254 (10%), Method: PREINCUBATION); “inactive; negative” (Test System: AMES SALMONELLA TYPHIMURIUM, Strain/Indicator: TA1537, Metabolic Activation: NONE, Method: PREINCUBATION). Besides, the mutagenic call is, setting by setting: (Test System: AMES SALMONELLA TYPHIMURIUM, Strain/Indicator: TA1537, Metabolic Activation: RAT, LIVER, S-9, AROCLOR 1254 (10%), Method: PREINCUBATION) “inactive; negative”; (Test System: AMES SALMONELLA TYPHIMURIUM, Strain/Indicator: TA1538, Metabolic Activation: RAT, LIVER, S-9, AROCLOR 1254, Method: STANDARD PLATE) “active; positive”.

As for `CCCSP(=O)(OCC)Oc1ccc(Br)cc1Cl` (stereo not drawn), the mutagenic call was “active; positive (structural changes)” (End Point: In vitro chromosomal aberrations, Test System: Human peripheral lymphocytes, Metabolic Activation: None); “active; positive (structural changes and ploidy)” (End Point: In vivo chromosomal aberrations, Test System: Bone marrow cells, Species: Mouse, Strain/Sex: Swiss/Male, Route: Oral).

Consider `CCN(C(C)OC(C)=O)[N+](=O)[O-]` (stereo not drawn), for which the mutagenic call (Test System: E. COLI, Strain/Indicator: WP2 (HCR-), Metabolic Activation: NONE) is “active; positive”.
